According to the NIST ThermoML archive (doi:10.1021/je200195q):
Numbers after ± are expanded uncertainties.

Experiment: activity coefficient (dimensionless); of the first substance listed, at infinite dilution; xn = mol fraction of the nth substance listed
Settings: 101 kPa, Liquid, Chromatography, x1 = 0

## CCC(C)=O [butanone] + CCCCCC[n+]1ccn(C)c1.FC(F)(F)C(F)(F)[P-](F)(F)(F)(C(F)(F)C(F)(F)F)C(F)(F)C(F)(F)F
312.8 K
  activity coefficient: 0.204 ± 0.029
332.85 K
  activity coefficient: 0.195 ± 0.029
354.65 K
  activity coefficient: 0.171 ± 0.029

## Cc1cccc(C)c1 [1,3-dimethylbenzene] + CCCCn1cc[n+](C)c1.O=S(=O)([N-]S(=O)(=O)C(F)(F)C(F)(F)F)C(F)(F)C(F)(F)F
322.55 K
  activity coefficient: 2.02 ± 0.14
342.75 K
  activity coefficient: 2.03 ± 0.14
362.65 K
  activity coefficient: 2.09 ± 0.14

## CCO [ethanol] + CCn1cc[n+](C)c1.CS(=O)(=O)[O-]
312.55 K
  activity coefficient: 0.438 ± 0.035
322.45 K
  activity coefficient: 0.418 ± 0.035
332.45 K
  activity coefficient: 0.405 ± 0.034

## CCCCCCCC [octane] + CCCCCCCCCCn1cc[n+](CCCCCCCCCC)c1C.O=S(=O)([N-]S(=O)(=O)C(F)(F)F)C(F)(F)F
323.1 K
  activity coefficient: 2.54 ± 0.17
333.15 K
  activity coefficient: 2.48 ± 0.17
343.15 K
  activity coefficient: 2.45 ± 0.17

## CCN(CC)CC [triethylamine] + CCCCCC[n+]1ccn(C)c1.FC(F)(F)C(F)(F)[P-](F)(F)(F)(C(F)(F)C(F)(F)F)C(F)(F)C(F)(F)F
312.8 K
  activity coefficient: 2.09 ± 0.14
332.85 K
  activity coefficient: 1.96 ± 0.13
354.65 K
  activity coefficient: 1.76 ± 0.12

## CCC(=O)CC [pentan-3-one] + CCCCn1cc[n+](C)c1.O=S(=O)([N-]S(=O)(=O)C(F)(F)C(F)(F)F)C(F)(F)C(F)(F)F
322.55 K
  activity coefficient: 0.624 ± 0.043
342.75 K
  activity coefficient: 0.656 ± 0.045
362.65 K
  activity coefficient: 0.695 ± 0.047

## CCCCCC [hexane] + CCCCn1cc[n+](C)c1.O=S(=O)([N-]S(=O)(=O)C(F)(F)C(F)(F)F)C(F)(F)C(F)(F)F
322.55 K
  activity coefficient: 9.49 ± 0.65
342.75 K
  activity coefficient: 8.8 ± 0.6
362.65 K
  activity coefficient: 8.43 ± 0.57

## CCCO [propan-1-ol] + CCCCn1cc[n+](C)c1.O=S(=O)([N-]S(=O)(=O)C(F)(F)C(F)(F)F)C(F)(F)C(F)(F)F
322.55 K
  activity coefficient: 1.99 ± 0.14
342.75 K
  activity coefficient: 1.62 ± 0.11
362.65 K
  activity coefficient: 1.35 ± 0.088

## CCc1ccccc1 [ethylbenzene] + CCCCn1cc[n+](C)c1.O=S(=O)([N-]S(=O)(=O)C(F)(F)C(F)(F)F)C(F)(F)C(F)(F)F
322.55 K
  activity coefficient: 2.04 ± 0.14
342.75 K
  activity coefficient: 2.05 ± 0.14
362.65 K
  activity coefficient: 2.06 ± 0.14

## C#CCCCCC [1-heptyne] + CCCCn1cc[n+](C)c1.O=S(=O)([N-]S(=O)(=O)C(F)(F)C(F)(F)F)C(F)(F)C(F)(F)F
322.55 K
  activity coefficient: 3.91 ± 0.27
342.75 K
  activity coefficient: 3.76 ± 0.26
362.65 K
  activity coefficient: 3.58 ± 0.24

## CO [methanol] + CCCCCCCCCCn1cc[n+](CCCCCCCCCC)c1C.O=S(=O)([N-]S(=O)(=O)C(F)(F)F)C(F)(F)F
323.1 K
  activity coefficient: 0.963 ± 0.061
333.15 K
  activity coefficient: 0.857 ± 0.055
343.15 K
  activity coefficient: 0.755 ± 0.05

## ClC(Cl)Cl [trichloromethane] + CCCCn1cc[n+](C)c1.O=S(=O)([N-]S(=O)(=O)C(F)(F)C(F)(F)F)C(F)(F)C(F)(F)F
322.55 K
  activity coefficient: 0.613 ± 0.043
342.75 K
  activity coefficient: 0.74 ± 0.049
362.65 K
  activity coefficient: 0.79 ± 0.051

## CCCCCC [hexane] + CCn1cc[n+](C)c1.CS(=O)(=O)[O-]
312.55 K
  activity coefficient: 207 ± 14
322.45 K
  activity coefficient: 190 ± 13
332.45 K
  activity coefficient: 152 ± 10

## C#CCCCCC [1-heptyne] + CCCCCCCCCCn1cc[n+](CCCCCCCCCC)c1C.O=S(=O)([N-]S(=O)(=O)C(F)(F)F)C(F)(F)F
323.1 K
  activity coefficient: 1.06 ± 0.067
333.15 K
  activity coefficient: 1.06 ± 0.067
343.15 K
  activity coefficient: 1.06 ± 0.067

## CC(C)O [propan-2-ol] + CCCCCC[n+]1ccn(C)c1.FC(F)(F)C(F)(F)[P-](F)(F)(F)(C(F)(F)C(F)(F)F)C(F)(F)C(F)(F)F
312.8 K
  activity coefficient: 2.06 ± 0.14
332.85 K
  activity coefficient: 1.62 ± 0.11
354.65 K
  activity coefficient: 1.26 ± 0.081

## c1ccsc1 [thiophene] + CCCCCC[n+]1ccn(C)c1.FC(F)(F)C(F)(F)[P-](F)(F)(F)(C(F)(F)C(F)(F)F)C(F)(F)C(F)(F)F
312.8 K
  activity coefficient: 0.577 ± 0.041
332.85 K
  activity coefficient: 0.602 ± 0.042
354.65 K
  activity coefficient: 0.604 ± 0.042
